Numbers after ± are expanded uncertainties.
What was measured:
[1] = refractive index (Na D-line) (dimensionless); details: 293.15 K; 101.33 kPa; Liquid; Standard Abbe refractometry
[2] = Liquid; for mass density: 293.15 K, 101.33 kPa, Vibrating tube method; for Normal boiling temperature: Manometric method

refractive index [1] | mass density [2] [kg/m3] | Normal boiling temperature [2] [°C] | Compound
1.3334 ± 0.001 | – | – | O [water]
1.4415 ± 0.0011 | 1160.8 ± 0.4 | 202.00 ± 1 | COC(=O)/C=C\C(=O)OC [dimethyl cis-butenedioate]
1.3719 ± 0.0011 | 1044.7 ± 0.3 | 117.90 ± 0.4 | CC(=O)O [acetic acid]

The next lines start with the molecule.

Compound | refractive index [1] | mass density [2] [kg/m3] | Normal boiling temperature [2] [°C]
CCC(=O)O [propanoic acid] | 1.391 ± 0.0011 | 988.3 ± 0.3 | 141.20 ± 0.4
O=CO [formic acid] | 1.3709 ± 0.0011 | 1221.1 ± 0.4 | 101.00 ± 1

— the NIST ThermoML archive (doi:10.1016/j.fluid.2008.04.014)
